Results from patent US9085555B2, “Complement pathway modulators and uses thereof” (priority 2011, dated 2015).

Target: Factor D (Homo sapiens (Human), UniProt P00746)
Test: biochemical
Format: biochemical
Conditions: read-out: IC50

Chain of Factor D (P00746 26-253): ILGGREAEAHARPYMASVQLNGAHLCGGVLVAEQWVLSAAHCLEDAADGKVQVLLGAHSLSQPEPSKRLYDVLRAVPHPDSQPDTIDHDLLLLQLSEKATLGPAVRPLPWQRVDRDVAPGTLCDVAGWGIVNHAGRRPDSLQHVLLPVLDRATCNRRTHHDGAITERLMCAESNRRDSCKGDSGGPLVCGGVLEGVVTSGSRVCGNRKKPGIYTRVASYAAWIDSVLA

SMILES	IC50
CC(=O)c1nn(CC(=O)N2[C@@H]3C[C@@H]3C[C@H]2C(=O)Nc2cccc(OC(F)(F)F)c2F)c2ccc(OCc3ncccn3)cc12 [Example 718, (1R,3S,5R)-2-{2-[3-Acetyl-5-(pyrimidin-2-ylmethoxy)-indazol-1-yl]-acetyl}-2-aza-bicyclo[3.1.0]hexane-3-carboxylic acid (2-fluoro-3-trifluoromethoxy-phenyl)-amide]	24 nM
NC(=O)c1nn(CC(=O)N2[C@@H]3C[C@@H]3C[C@H]2C(=O)Nc2cccc(OC(F)(F)F)c2F)c2cnc(C3CC3)cc12 [Example 719, 5-Cyclopropyl-1-(2-((1R,3S,5R)-3-((2-fluoro-3-(trifluoromethoxy)phenyl)carbamoyl)-2-azabicyclo [3.1.0]hexan-2-yl)-2-oxoethyl)-1H-pyrazolo[3,4-c]pyridine-3-carboxamide]	13 nM
NC(=O)c1nn(CC(=O)N2[C@@H]3C[C@@H]3C[C@H]2C(=O)Nc2cccc(OC(F)(F)F)c2F)c2nnccc12 [Example 720, 1-(2-((1R,3S,5R)-3-((2-Fluoro-3-(trifluoromethoxy)phenyl)carbamoyl)-2-azabicyclo[3.1.0]hexan-2-yl)-2-oxoethyl)-1H-pyrazolo[3,4-c] pyridazine-3-carboxamide]	140 nM
NC(=O)c1nn(CC(=O)N2[C@@H]3C[C@@H]3C[C@H]2C(=O)Nc2cccc(-c3c(F)cccc3F)n2)c2cnccc12 [Example 721, 1-(2-{(1R,3S,5R)-3-[6-(2,6-Difluoro-phenyl)-pyridin-2-ylcarbamoyl]-2-aza-bicyclo[3.1.0]hex-2-yl}-2-oxo-ethyl)-1H-pyrazolo[3,4-c]pyridine-3-carboxamide]	98 nM
NC(=O)c1nn(CC(=O)N2[C@@H]3C[C@@H]3C[C@H]2C(=O)Nc2cccc(-c3c(F)cccc3Cl)c2)c2cnccc12 [Example 722, 1-(2-((1R,3S,5R)-3-(2′-Chloro-6′-fluorobiphenyl-3-ylcarbamoyl)-2-azabicyclo[3.1.0]hexan-2-yl)-2-oxoethyl)-1H-pyrazolo[3,4-c] pyridine-3-carboxamide]	20 nM
Cc1cc2c(C(N)=O)nn(CC(=O)N3[C@@H]4C[C@@H]4C[C@H]3C(=O)Nc3cccc(OC(F)(F)F)c3F)c2cn1 [Example 723, 1-{2-[(1R,3S,5R)-3-(2-Fluoro-3-trifluoromethoxy-phenylcarbamoyl)-2-aza-bicyclo[3.1.0]hex-2-yl]-2-oxo-ethyl}-5-methyl-1H-pyrazolo[3,4-c]pyridine-3-carboxylic acid amide]	90 nM
NC(=O)c1nn(CC(=O)N2[C@@H]3C[C@@H]3C[C@H]2C(=O)Nc2cccc(OC(F)(F)F)c2F)c2cnccc12 [Example 724]	61 nM
CC(=O)c1nn(CC(=O)N2[C@@H]3C[C@@H]3C[C@H]2C(=O)Nc2cccc(OC(F)(F)F)c2F)c2cc(C(=O)O)ccc12 [Example 725]	18 nM
Cc1cc2c(C(N)=O)nn(CC(=O)N3[C@@H]4C[C@@H]4C[C@H]3C(=O)Nc3cccc(OC(F)(F)F)c3F)c2c[n+]1[O-] [Example 726]	169 nM
NC(=O)c1nn(CC(=O)N2[C@@H]3C[C@@H]3C[C@H]2C(=O)Nc2cccc(Br)n2)c2cnccc12 [Example 728, 1-{2-[(1R,3S,5R)-3-(6-bromo-pyridin-2-ylcarbamoyl)-2-aza-bicyclo[3.1.0]hex-2-yl]-2-oxo-ethyl}-1H-pyrazolo[3,4-c] pyridine-3-carboxylic acid amide]	8 nM
NC(=O)c1nn(CC(=O)N2[C@@H]3C[C@@H]3C[C@H]2C(=O)Nc2cccc(OC(F)F)c2F)c2ccccc12 [Example 729, 1-{2-[(1R,3S,5R)-3-(3-Difluoromethoxy-2-fluoro-phenylcarbamoyl)-2-aza-bicyclo[3.1.0]hex-2-yl]-2-oxo-ethyl}-1H-indazole-3-carboxylic acid amide]	62 nM
NC(=O)c1nn(CC(=O)N2[C@@H]3C[C@@H]3C[C@H]2C(=O)Nc2cccc(OC(F)F)c2F)c2cnccc12 [Example 730, 1-{2-[(1R,3S,5R)-3-(3-Difluoromethoxy-2-fluoro-phenylcarbamoyl)-2-aza-bicyclo[3.1.0]hex-2-yl]-2-oxo-ethyl}-1H-pyrazolo[3,4-c] pyridine-3-carboxylic acid amide]	143 nM
NC(=O)c1nn(CC(=O)N2[C@@H]3C[C@@H]3C[C@H]2C(=O)Nc2cccc(Cl)c2F)c2ccccc12 [Example 731, 1-{2-[(1R,3S,5R)-3-(3-Chloro-2-fluoro-phenylcarbamoyl)-2-aza-bicyclo[3.1.0]hex-2-yl]-2-oxo-ethyl}-1H-indazole-3-carboxylic acid amide]	53 nM
NC(=O)c1nn(CC(=O)N2[C@@H]3C[C@@H]3C[C@H]2C(=O)Nc2cccc(C(F)(F)F)n2)c2cnccc12 [Example 732, 1-{2-Oxo-2-[(1R,3S,5R)-3-(6-trifluoromethyl-pyridin-2-ylcarbamoyl)-2-aza-bicyclo [3.1.0]hex-2-yl]-ethyl}-1H-pyrazolo[3,4-c]pyridine-3-carboxylic acid amide]	44 nM
CC(=O)c1nn(CC(=O)N2[C@@H]3C[C@@H]3C[C@H]2C(=O)Nc2cccc(C(F)(F)F)n2)c2cnccc12 [Example 733, (1R,3S,5R)-2-[2-(3-Acetyl-pyrazolo[3,4-c]pyridin-1-yl)-acetyl]-2-aza-bicyclo[3.1.0] hexane-3-carboxylic acid (6-trifluoromethyl-pyridin-2-yl)-amide]	25 nM
Cc1cc2c(C(N)=O)nn(CC(=O)N3[C@@H]4C[C@@H]4C[C@H]3C(=O)Nc3cccc(Br)n3)c2cn1 [Example 734, 1-{2-[(1R,3S,5R)-3-(6-Bromo-pyridin-2-ylcarbamoyl)-2-aza-bicyclo[3.1.0]hex-2-yl]-2-oxo-ethyl}-5-methyl-1H-pyrazolo [3,4-c]pyridine-3-carboxylic acid amide]	4 nM
CCc1cc2c(C(N)=O)nn(CC(=O)N3[C@@H]4C[C@@H]4C[C@H]3C(=O)Nc3cccc(Br)n3)c2cn1 [Example 735, 1-{2-[(1R,3S,5R)-3-(6-Bromo-pyridin-2-ylcarbamoyl)-2-aza-bicyclo[3.1.0]hex-2-yl]-2-oxo-ethyl}-5-ethyl-1H-pyrazolo[3,4-c]pyridine-3-carboxylic acid amide]	3 nM
CC(=O)c1nn(CC(=O)N2[C@@H]3C[C@@H]3C[C@H]2C(=O)Nc2cccc(Br)n2)c2cnccc12 [Example 736, (1R,3S,5R)-2-[2-(3-Acetyl-pyrazolo[3,4-c]pyridin-1-yl)-acetyl]-2-aza-bicyclo[3.1.0] hexane-3-carboxylic acid (6-bromo-pyridin-2-yl)-amide]	18 nM
C[C@@]12C[C@@H](C(=O)Nc3cccc(OC(F)(F)F)c3F)N(C(=O)Cn3nc(C(N)=O)c4ccncc43)[C@@H]1C2 [Example 738, 1-{2-[(1R,3S,5R)-3-(2-Fluoro-3-trifluoromethoxy-phenylcarbamoyl)-5-methyl-2-aza-bicyclo[3.1.0]hex-2-yl]-2-oxo-ethyl}-1H-pyrazolo[3,4-c] pyridine-3-carboxylic acid amide]	93 nM
NC(=O)c1nn(CC(=O)N2C[C@H](F)C[C@H]2C(=O)Nc2cccc(Br)n2)c2ccccc12 [Example 739, 1-{2-[(2S,4R)-2-(6-Bromo-pyridin-2-ylcarbamoyl)-4-fluoro-pyrrolidin-1-yl]-2-oxo-ethyl}-1H-indazole-3-carboxylic acid amide]	23 nM
